Test results published in patent publication US20170119742A1, “MEDICAMENT FOR PREVENTING AND/OR TREATING STRESS DISEASES” (ONO PHARMACEUTICAL CO., LTD., priority 2014, published 2017).

How the values were obtained:
[1] = test system: female diarrhea-type IBS patients; test: Efficacy trial in humans 1: double-blind parallel-group study in IBS; format: in vivo, human; conditions: for Daily responder (%), Abdominal Pain and Stool Consistency: placebo 6.5; for Daily responder (%), Stool Consistency: placebo 10.9; for Weekly responder (%), Abdominal Pain and Stool Consistency: placebo 21.7; for Weekly responder (%), Stool Consistency: placebo 28.3; for Daily responder (%), Abdominal Pain: placebo 37; for Weekly responder (%), Abdominal Pain: placebo 39.1; for increase in the number of days per week with no abdominal pain: 4th week of treatment period, placebo 0.61
Method: As a clinical trail, a double-bind, parallel-group study was conducted under the following conditions in female diarrhea-type IBS patients.
PURPOSE: Confirmation of efficacy against clinical symptoms of IBS METHODS: This study was conducted at 49 centers in the United States and recruited 200 patients (aged 18-65 years) with female diarrhea-type IBS patients according to Rome III criteria (Gastroenterology, Vol. 130, p. 1480-1491, 2006). Patients were randomly assigned to any of the following three treatment groups (1:1:1 ratio) and received orally administration once-daily for 4 weeks. Patients recorded their IBS symptoms on a daily basis in an e-diary during a 2-week pre-treatment, the 4-week treatment period and for 4 weeks post-treatment. Safety monitoring was performed throughout the study. The primary endpoints were change from baseline (pre-treatment period) to week 4 in stool consistency (Bristol Stool Scale; BSS), stool frequency and abdominal pain (Numerical Rating Scale; NRS). Secondary endpoints included FDA responder analyses (Guidance for Industry Irritable Bowel Syndrome—Clinical Evaluation of Drugs for Treatment).
(1) Placebo group (2) The compound of the present invention (20 mg treatment) group (3) The compound of the present invention (60 mg treatment) group ENDPOINTS: IBS symptoms (abdominal pain, stool consistency, stool frequency, faecal urgency and severity), QOL, psychological symptoms, safety, pharmacokinetics and biomarker RESULTS: Baseline value of patient layer and each of the parameters (stool consistency, stool frequency and abdominal pain) were similar in each treatment group. […] Further, a greater percentage of patients met responder criteria among patients in 60 mg treatment group of the compound of the present invention compared to placebo treatment group (Table 3, FIG. 10 and FIG. 11). On the other hand, the increase in the number of days per week with no abdominal pain at the 4th week of treatment period were 0.61 in placebo treatment group, 1.16 in 20 mg treatment group and 1.51 in 60 mg treatment group.
The weekly responder of abdominal pain and stool consistency was defined as a patient who met the both criteria of the above-mentioned abdominal pain score and stool consistency.

brain TSPO = test: Ex vivo brain TSPO occupancy in monkeys, [3H] PBR28; conditions: rhesus monkey, once on day 4, 2 h after final dose
Method: The vehicle (0.5 w/v % methylcellulose 400 cP solution) or the compound of the present invention (0.4 or 1 mg/kg) was orally administered twice daily for 3 days, once on day 4 to male rhesus monkeys (Shin Nippon Biomedical Laboratories, Ltd., at the time of use: 4 to 6 kg). After 2 hours of the final administration, in the same manner as Biological example 1, brain TSPO occupancy of the compound of the present invention relative to the specific binding of the vehicle control group was measured by measuring the specific binding amount of [3H] PBR28 on brain (anterior cingulate cortex, caudate nucleus, amygdala, hippocampus and occipital lobe) homogenates (n=3 in vehicle control group, n=5 in each the compound of the present invention treated group). As a result, the average TSPO occupancy of brain 5 sites was 37.9 and 56.6% in 0.4 and 1 mg/kg group of the compound of the present invention. The average plasma concentration of the compound of the present invention was 23.9 and 154 ng/mL in 0.4 and 1 mg/kg group.

[2] = test system: olfactory bulb isolated rats; test: Antidepressant effect: excessive emotional reactivity in olfactory bulb isolated rats; format: in vivo; conditions: rat, 0.3, 1 and 3 mg/kg oral once daily, before and after administration on day 7, p<0.01 Steel test
Source text: Male Crlj: WI rats (Charles River Laboratories Japan, Inc., at the time of surgery: 11 weeks old) were used to prepare an olfactory bulb isolated rat in accordance with Yamaguchi et al. method (Journal of the Pharmaceutical Society of Japan, Vol. 130, p. 175-183, 2007). The head of the anesthetized rat with pentobarbital sodium was fixed to brain stereotaxic apparatus (ASI Instruments Inc., NARISHIGE). After incising the scalp, holes to the left and right olfactory bulb region of the skull (7 mm forward and 1.8 mm laterally from bregma) were made with a dental drill. After aspirating and removing the left and right olfactory bulb by an aspirator coupled to an oral sonde which except for the tip, scalp was sutured. […] After 14 days of surgery, the excessive emotional reactivity was evaluated in accordance with the method of Gomita et al. (Journal of the Pharmaceutical Society of Japan, Vol. 82, p. 267-292, 1983). […]
A vehicle (physiological saline solution containing 0.5% Tween 80) or the compound of the present invention (0.3, 1 or 3 mg/kg) was orally administered to the olfactory bulb isolated rat repeatedly once daily for 8 days. […] On day 7, the excessive emotional reactivity was evaluated before and 1 hour after the administration.

[3] = 20 mg oral once daily 4 weeks, n = 41
[4] = 60 mg oral once daily 4 weeks, n = 45

`COc1cc(Cl)ccc1[C@H]1c2[nH]c3cccc(F)c3c2C2(CC2)CN1C(C)=O` [the compound of the present invention, (1S)-2-acetyl-1-(4-chloro-2-methoxyphenyl)-5-fluoro-1,2,3,9-tetrahydrospiro[β-carboline-4,1′-cyclopropane]] was tested, and the “tolerability and safety profile” value ([1]; 20 mg or 60 mg oral once daily for 4 weeks) was “well-tolerated and had a favourable safety profile”, the “Daily responder (%), Abdominal Pain and Stool Consistency” value [1, 3] was 14.6% and the “Daily responder (%), Stool Consistency” value [1, 3] was 17.1%. The “Weekly responder (%), Abdominal Pain and Stool Consistency” value [1, 3] was 22%, the “Weekly responder (%), Stool Consistency” value [1, 3] was 41.5% and the “Daily responder (%), Abdominal Pain” value [1, 3] was 36.6%. The “Weekly responder (%), Abdominal Pain” value [1, 3] was 39%, the “Daily responder (%), Abdominal Pain and Stool Consistency” value [1, 4] was 20% and the “Daily responder (%), Stool Consistency” value [1, 4] was 26.7%. For the same compound, the “Weekly responder (%), Abdominal Pain and Stool Consistency” value [1, 4] was 37.8%, the “Weekly responder (%), Stool Consistency” value [1, 4] was 48.9% and the “Daily responder (%), Abdominal Pain” value [1, 4] was 53.3%. The “Weekly responder (%), Abdominal Pain” value [1, 4] was 57.8%, the “number of days per week with at least one stool having a BSS classification of 6 or 7, vs placebo” value ([1]; 60 mg treatment group, over the 4-week treatment period (FIG. 8)) was “Improvements over placebo treatment group” and the “average weekly score of the worst abdominal pain experienced during the past 24 hours, vs placebo” value ([1]; 60 mg treatment group, over the 4-week treatment period (FIG. 9)) was “Improvements over placebo treatment group”. For the same compound, the “increase in the number of days per week with no abdominal pain” value ([1]; 20 mg treatment group) was 1.16, the “increase in the number of days per week with no abdominal pain” value ([1]; 60 mg treatment group) was 1.51 and the “average TSPO occupancy of brain 5 sites” value (brain TSPO; 0.4 mg/kg oral twice daily 3 days) was 37.9%. For the same compound, the “average TSPO occupancy of brain 5 sites” value (brain TSPO; 1 mg/kg oral twice daily 3 days) was 56.6% and the “excessive emotional score compared with the vehicle control group” value [2] was “significantly lower”.
